Laboratory results from the NIST ThermoML archive (doi:10.1021/je700145e).

Conditions: Liquid

CCCCCCCCO [octan-1-ol]
Conditions	mass density [kg/m3]
313.14 K, 1004 kPa	811.26
313.14 K, 2019 kPa	811.95
313.14 K, 3000 kPa	812.59
313.14 K, 4020 kPa	813.22
313.14 K, 4995 kPa	813.89
313.14 K, 6000 kPa	814.53
313.14 K, 7007 kPa	815.21
313.14 K, 8012 kPa	815.83
313.14 K, 8994 kPa	816.51
313.14 K, 10014 kPa	817.19
313.14 K, 11007 kPa	817.79
313.14 K, 12000 kPa	818.42
313.14 K, 12997 kPa	819.05
313.14 K, 14001 kPa	819.67
313.14 K, 14997 kPa	820.27
313.14 K, 16002 kPa	820.89
313.14 K, 17001 kPa	821.48
313.14 K, 17997 kPa	822.1
313.14 K, 19004 kPa	822.69
313.14 K, 20007 kPa	823.28
313.14 K, 21004 kPa	823.86
323.09 K, 1007 kPa	804.26
323.09 K, 2016 kPa	804.97
323.09 K, 3019 kPa	805.7
323.09 K, 4025 kPa	806.4
323.09 K, 5012 kPa	807.07
323.09 K, 6093 kPa	807.82
323.09 K, 7143 kPa	808.56
323.09 K, 8009 kPa	809.12
323.09 K, 8989 kPa	809.77
323.09 K, 10014 kPa	810.47
323.09 K, 11031 kPa	811.14
323.09 K, 12010 kPa	811.82
323.09 K, 13005 kPa	812.44
323.09 K, 14003 kPa	813.11
323.09 K, 15012 kPa	813.76
323.09 K, 16009 kPa	814.4
323.09 K, 17005 kPa	815.04
323.09 K, 18013 kPa	815.66
323.09 K, 19003 kPa	816.26
323.09 K, 20025 kPa	816.9
323.09 K, 21081 kPa	817.56
323.09 K, 22009 kPa	818.09
333.05 K, 1038 kPa	797.31
333.05 K, 2029 kPa	798.03
333.05 K, 2999 kPa	798.76
333.05 K, 4033 kPa	799.51
333.05 K, 5020 kPa	800.25
333.05 K, 6014 kPa	800.97
333.05 K, 7029 kPa	801.69
333.05 K, 8011 kPa	802.44
333.05 K, 9005 kPa	803.11
333.05 K, 10022 kPa	803.83
333.05 K, 11011 kPa	804.55
333.05 K, 12021 kPa	805.23
333.05 K, 13022 kPa	805.92
333.05 K, 14031 kPa	806.61
333.05 K, 15010 kPa	807.28
333.05 K, 16023 kPa	807.92
333.05 K, 17012 kPa	808.59
333.05 K, 18035 kPa	809.23
333.05 K, 19009 kPa	809.87
333.05 K, 20002 kPa	810.51
333.05 K, 21011 kPa	811.15
333.05 K, 22019 kPa	811.82
343.03 K, 1049 kPa	790.6
343.03 K, 2003 kPa	791.16
343.03 K, 2981 kPa	791.93
343.03 K, 4017 kPa	792.68
343.03 K, 5000 kPa	793.37
343.03 K, 6005 kPa	794.05
343.03 K, 7018 kPa	794.88
343.03 K, 8104 kPa	795.68
343.03 K, 9014 kPa	796.44
343.03 K, 10022 kPa	797.1
343.03 K, 11028 kPa	797.87
343.03 K, 11997 kPa	798.58
343.03 K, 13030 kPa	799.3
343.03 K, 14005 kPa	800
343.03 K, 15002 kPa	800.66
343.03 K, 16032 kPa	801.38
343.03 K, 17016 kPa	801.99
343.03 K, 18012 kPa	802.68
343.03 K, 19005 kPa	803.29
343.03 K, 20018 kPa	803.98
343.03 K, 21014 kPa	804.61
343.03 K, 22004 kPa	805.23
352.89 K, 1023 kPa	782.71
352.89 K, 2011 kPa	783.55
352.89 K, 3032 kPa	784.42
352.89 K, 4022 kPa	785.42
352.89 K, 5005 kPa	786.18
352.89 K, 6026 kPa	787.13
352.89 K, 7003 kPa	787.9
352.89 K, 8016 kPa	788.71
352.89 K, 9007 kPa	789.47
352.89 K, 10003 kPa	790.22
352.89 K, 11022 kPa	791
352.89 K, 12170 kPa	791.78
352.89 K, 13015 kPa	792.51
352.89 K, 14018 kPa	793.24
352.89 K, 15009 kPa	794
352.89 K, 16023 kPa	794.74
352.89 K, 17010 kPa	795.48
352.89 K, 18002 kPa	796.16
352.89 K, 19029 kPa	796.9
352.89 K, 20046 kPa	797.63
352.89 K, 21023 kPa	798.3
362.77 K, 1051 kPa	775.67
362.77 K, 2025 kPa	776.41
362.77 K, 3016 kPa	777.19
362.77 K, 4009 kPa	778.05
362.77 K, 4974 kPa	778.77
362.77 K, 6005 kPa	779.51
362.77 K, 7006 kPa	780.3
362.77 K, 8011 kPa	780.95
362.77 K, 9008 kPa	781.79
362.77 K, 10034 kPa	782.62
362.77 K, 11013 kPa	783.32
362.77 K, 11987 kPa	784.03
362.77 K, 13015 kPa	784.77
362.77 K, 14006 kPa	785.51
362.77 K, 14997 kPa	786.3
362.77 K, 16001 kPa	787.03
362.77 K, 17013 kPa	787.79
362.77 K, 17997 kPa	788.55
362.77 K, 19000 kPa	789.33
362.77 K, 20023 kPa	790.04
362.77 K, 21004 kPa	790.83

CCCCC(C)O (stereo unspecified) [2-hexanol]
Conditions	mass density [kg/m3]
313.13 K, 1010 kPa	799.26
313.13 K, 2006 kPa	800.05
313.13 K, 2999 kPa	800.83
313.13 K, 4008 kPa	801.59
313.13 K, 4999 kPa	802.35
313.13 K, 5986 kPa	803.12
313.13 K, 7000 kPa	803.86
313.13 K, 8010 kPa	804.64
313.13 K, 9026 kPa	805.38
313.13 K, 10004 kPa	806.09
313.13 K, 11005 kPa	806.84
313.13 K, 12001 kPa	807.56
313.13 K, 13010 kPa	808.28
313.13 K, 14002 kPa	808.98
313.13 K, 14998 kPa	809.67
313.13 K, 16001 kPa	810.39
313.13 K, 17006 kPa	811.08
313.13 K, 18000 kPa	811.7
313.13 K, 19005 kPa	812.39
313.13 K, 20015 kPa	813.1
313.13 K, 21029 kPa	813.74
313.13 K, 22004 kPa	814.4
323.09 K, 1037 kPa	791
323.09 K, 2000 kPa	791.79
323.09 K, 3010 kPa	792.63
323.09 K, 4029 kPa	793.48
323.09 K, 5004 kPa	794.27
323.09 K, 6020 kPa	795.1
323.09 K, 7007 kPa	795.84
323.09 K, 8009 kPa	796.68
323.09 K, 9017 kPa	797.48
323.09 K, 10003 kPa	798.25
323.09 K, 11001 kPa	799
323.09 K, 12000 kPa	799.77
323.09 K, 13021 kPa	800.56
323.09 K, 14001 kPa	801.3
323.09 K, 15002 kPa	802
323.09 K, 16000 kPa	802.74
323.09 K, 17004 kPa	803.48
323.09 K, 18008 kPa	804.21
323.09 K, 19001 kPa	804.9
323.09 K, 20011 kPa	805.62
323.09 K, 21003 kPa	806.31
323.09 K, 22004 kPa	807.01
333.04 K, 1055 kPa	782.56
333.04 K, 2007 kPa	783.43
333.04 K, 3005 kPa	784.28
333.04 K, 4007 kPa	785.21
333.04 K, 5015 kPa	786.06
333.04 K, 6009 kPa	786.93
333.04 K, 7006 kPa	787.77
333.04 K, 7998 kPa	788.61
333.04 K, 9006 kPa	789.47
333.04 K, 10004 kPa	790.32
333.04 K, 11007 kPa	791.11
333.04 K, 12012 kPa	791.93
333.04 K, 13003 kPa	792.72
333.04 K, 14008 kPa	793.51
333.04 K, 15005 kPa	794.3
333.04 K, 16001 kPa	795.06
333.04 K, 17006 kPa	795.85
333.04 K, 18010 kPa	796.61
333.04 K, 19002 kPa	797.35
333.04 K, 20000 kPa	798.08
333.04 K, 21000 kPa	798.82
333.04 K, 22004 kPa	799.56
342.98 K, 1032 kPa	774.05
342.98 K, 2015 kPa	775.01
342.98 K, 3012 kPa	775.95
342.98 K, 4017 kPa	776.87
342.98 K, 5013 kPa	777.79
342.98 K, 6012 kPa	778.72
342.98 K, 7025 kPa	779.62
342.98 K, 8000 kPa	780.47
342.98 K, 9000 kPa	781.35
342.98 K, 9996 kPa	782.25
342.98 K, 11020 kPa	783.12
342.98 K, 11999 kPa	783.92
342.98 K, 12996 kPa	784.76
342.98 K, 14007 kPa	785.6
342.98 K, 15003 kPa	786.41
342.98 K, 16005 kPa	787.17
342.98 K, 17002 kPa	787.98
342.98 K, 18010 kPa	788.76
342.98 K, 19005 kPa	789.49
342.98 K, 20010 kPa	790.27
342.98 K, 21006 kPa	791
342.98 K, 22005 kPa	791.75
352.86 K, 1053 kPa	765.06
352.86 K, 2014 kPa	766.05
352.86 K, 3019 kPa	767.09
352.86 K, 4033 kPa	768.08
352.86 K, 4996 kPa	769.01
352.86 K, 6006 kPa	770.06
352.86 K, 7013 kPa	771.02
352.86 K, 8004 kPa	771.95
352.86 K, 9035 kPa	772.93
352.86 K, 10009 kPa	773.84
352.86 K, 11007 kPa	774.75
352.86 K, 12007 kPa	775.66
352.86 K, 12999 kPa	776.54
352.86 K, 14012 kPa	777.47
352.86 K, 15010 kPa	778.33
352.86 K, 16003 kPa	779.21
352.86 K, 17002 kPa	780.07
352.86 K, 18017 kPa	780.92
352.86 K, 19005 kPa	781.75
352.86 K, 20014 kPa	782.58
352.86 K, 21013 kPa	783.39
352.86 K, 22010 kPa	784.18
362.73 K, 1075 kPa	754.97
362.73 K, 2006 kPa	756.02
362.73 K, 3018 kPa	757.16
362.73 K, 4034 kPa	758.26
362.73 K, 5016 kPa	759.29
362.73 K, 6066 kPa	760.41
362.73 K, 6998 kPa	761.37
362.73 K, 8041 kPa	762.44
362.73 K, 9014 kPa	763.43
362.73 K, 10001 kPa	764.37
362.73 K, 11026 kPa	765.39
362.73 K, 12000 kPa	766.35
362.73 K, 13010 kPa	767.31
362.73 K, 13999 kPa	768.28
362.73 K, 15006 kPa	769.21
362.73 K, 16006 kPa	770.12
362.73 K, 17005 kPa	771.02
362.73 K, 18000 kPa	771.92
362.73 K, 19003 kPa	772.82
362.73 K, 20017 kPa	773.7
362.73 K, 21006 kPa	774.56
362.73 K, 22010 kPa	775.42
